Results: ChEMBL document CHEMBL1201862, “PubChem BioAssay data set” (2004)
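Dose response: 5 concentrations. Exposure: 48 h. Format: 96-well plates. Endpoint: linear interpolation; highest concentration if not reached. GI50 is the concentration that inhibits growth by half.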 Calls of active or inactive are those of the source. Cut-off read from the data, not from the text of the source: active = GI50 up to about 1.1 µM and inactive = higher.

Columns and labels:
Assay in all cases: NCI-60 cell line screen, 48 h
SK-MEL-28 = test system: SK-MEL-28
NCI-H23 = test system: NCI-H23
SF-539 = test system: SF-539
UACC-257 = test system: UACC-257
EKVX = test system: EKVX
786-0 = test system: 786-0
NCI-H460 = test system: NCI-H460
OVCAR-8 = test system: OVCAR-8
SNB-75 = test system: SNB-75
HOP-62 = test system: HOP-62
A549 = test system: A549
U-251 = test system: U-251
HT-29 = test system: HT-29
UACC-62 = test system: UACC-62
CAKI-1 = test system: CAKI-1
SN12C = test system: SN12C
SNB-19 = test system: SNB-19
IGROV-1 = test system: IGROV-1
Malme-3M = test system: Malme-3M

Measured: GI50

Cc1ccc(NC(=O)SCCC(=O)O)cc1
inactive: SK-MEL-28 > 100 µM | NCI-H23 > 100 µM | SF-539 > 100 µM | UACC-257 > 100 µM | EKVX > 100 µM | 786-0 > 100 µM | NCI-H460 > 100 µM | OVCAR-8 > 100 µM | SNB-75 8.95 µM | HOP-62 > 100 µM | A549 > 100 µM | U-251 > 100 µM | HT-29 > 100 µM | UACC-62 45.7 µM | CAKI-1 > 100 µM | SN12C > 100 µM | SNB-19 > 100 µM | IGROV-1 47.4 µM

C/C(=N\NC(=O)C(N)=O)c1c(O)cc(C)oc1=O
inactive: SK-MEL-28 > 100 µM | NCI-H23 > 100 µM | SF-539 > 100 µM | UACC-257 > 100 µM | EKVX > 100 µM | 786-0 > 100 µM | Malme-3M > 100 µM | NCI-H460 > 100 µM | OVCAR-8 > 100 µM | SNB-75 > 100 µM | HOP-62 > 100 µM | A549 > 100 µM | U-251 > 100 µM | HT-29 > 100 µM | UACC-62 > 100 µM | SN12C > 100 µM | SNB-19 > 100 µM | IGROV-1 > 100 µM

O=[N+]([O-])c1ccc(-c2ccc(-c3csc(Nc4ccccn4)n3)o2)cc1
inactive: SK-MEL-28 95.7 µM | NCI-H23 > 10 µM | UACC-257 > 100 µM | Malme-3M 32.3 µM | NCI-H460 > 10 µM | OVCAR-8 64.7 µM | SNB-75 > 100 µM | HOP-62 31.2 µM | U-251 13.8 µM | HT-29 > 100 µM | UACC-62 29.9 µM | CAKI-1 > 100 µM | SN12C 41.4 µM | SNB-19 20.2 µM | IGROV-1 > 100 µM

CC1CCCCNC1=S (stereo not drawn)
inactive: SK-MEL-28 > 10 µM | NCI-H23 > 10 µM | SF-539 > 10 µM | UACC-257 > 10 µM | EKVX > 10 µM | Malme-3M > 10 µM | NCI-H460 > 10 µM | OVCAR-8 > 10 µM | SNB-75 > 10 µM | HOP-62 > 10 µM | A549 > 10 µM | U-251 > 10 µM | HT-29 > 10 µM | UACC-62 > 10 µM | SN12C > 10 µM | SNB-19 > 10 µM | IGROV-1 > 10 µM

C/C(CC(=O)Nc1cc(Cl)c(Cl)cc1Cl)=N\NC(N)=O
inactive: SK-MEL-28 > 100 µM | NCI-H23 > 100 µM | SF-539 > 100 µM | UACC-257 > 100 µM | EKVX > 100 µM | 786-0 > 100 µM | Malme-3M > 100 µM | OVCAR-8 > 100 µM | SNB-75 66.5 µM | HOP-62 > 100 µM | A549 > 100 µM | U-251 > 100 µM | HT-29 > 100 µM | UACC-62 > 100 µM | IGROV-1 > 100 µM

O=c1n(C2CCCCC2)c(=C(Cl)Cl)c(=C(Cl)Cl)n1C1CCCCC1
inactive: SK-MEL-28 > 100 µM | NCI-H23 > 100 µM | SF-539 > 100 µM | UACC-257 54.5 µM | EKVX > 100 µM | 786-0 > 100 µM | Malme-3M > 100 µM | NCI-H460 > 100 µM | OVCAR-8 > 100 µM | SNB-75 > 100 µM | HOP-62 > 100 µM | A549 > 100 µM | U-251 > 100 µM | HT-29 > 100 µM | UACC-62 > 100 µM | SN12C > 100 µM | SNB-19 > 100 µM | IGROV-1 > 100 µM

CC(=O)NNc1nc(C)c(C(=O)/C=C/c2cccc([N+](=O)[O-])c2)s1
inactive: SK-MEL-28 > 100 µM | NCI-H23 > 100 µM | SF-539 > 100 µM | UACC-257 > 100 µM | EKVX 19.5 µM | 786-0 > 100 µM | Malme-3M > 100 µM | NCI-H460 > 100 µM | OVCAR-8 > 100 µM | HOP-62 > 100 µM | A549 > 100 µM | U-251 > 100 µM | HT-29 > 100 µM | UACC-62 > 100 µM | CAKI-1 > 100 µM | SN12C > 100 µM | SNB-19 > 100 µM | IGROV-1 > 100 µM

NC(CCCCNC(=O)C(Cc1ccccc1)NC(=O)OCc1ccccc1)C(=O)NC(CCCCNC(=O)C(Cc1ccccc1)NC(=O)OCc1ccccc1)C(=O)NC(CCCCNC(=O)C(Cc1ccccc1)NC(=O)OCc1ccccc1)C(=O)NC(CCCCNC(=O)C(Cc1ccccc1)NC(=O)OCc1ccccc1)C(=O)NC(CCCCNC(=O)C(Cc1ccccc1)NC(=O)OCc1ccccc1)C(=O)NC(CCCCNC(=O)C(Cc1ccccc1)NC(=O)OCc1ccccc1)C(=O)O (stereo not drawn)
inactive: SK-MEL-28 > 100 µM | NCI-H23 > 100 µM | UACC-257 > 100 µM | 786-0 > 100 µM | Malme-3M > 100 µM | NCI-H460 > 100 µM | OVCAR-8 > 100 µM | SNB-75 > 100 µM | HOP-62 > 100 µM | A549 > 100 µM | U-251 > 100 µM | HT-29 > 100 µM | UACC-62 > 100 µM | CAKI-1 > 100 µM | SN12C > 100 µM | SNB-19 > 100 µM | IGROV-1 > 100 µM

CCN1C(=O)N2C(OC)c3ccccc3C(Br)C2(OC)C1=O (stereo not drawn)
inactive: SK-MEL-28 > 100 µM | NCI-H23 > 100 µM | Malme-3M > 100 µM | NCI-H460 > 100 µM | OVCAR-8 > 100 µM | SNB-75 48.3 µM | HOP-62 > 100 µM | U-251 > 100 µM | UACC-62 > 100 µM | CAKI-1 > 100 µM | SN12C > 100 µM | SNB-19 > 100 µM | IGROV-1 > 100 µM

C#Cc1ccccc1C(=O)OC
inactive: SK-MEL-28 > 100 µM | NCI-H23 > 100 µM | SF-539 > 100 µM | UACC-257 > 100 µM | EKVX > 100 µM | Malme-3M > 100 µM | NCI-H460 > 100 µM | OVCAR-8 > 100 µM | SNB-75 11.5 µM | HOP-62 > 100 µM | A549 > 100 µM | U-251 > 100 µM | HT-29 > 100 µM | UACC-62 > 100 µM | SN12C > 100 µM | SNB-19 > 100 µM | IGROV-1 > 100 µM

CC1CCC2(CC1)NN=c1s/c(=C\c3ccc(O)cc3)c(=O)n1N2 (stereo not drawn)
inactive: SK-MEL-28 > 100 µM | NCI-H23 > 100 µM | SF-539 > 100 µM | EKVX > 100 µM | 786-0 > 100 µM | NCI-H460 > 100 µM | OVCAR-8 > 100 µM | SNB-75 63.5 µM | HOP-62 > 100 µM | A549 > 100 µM | U-251 > 100 µM | HT-29 > 100 µM | UACC-62 > 100 µM | SN12C > 100 µM | SNB-19 > 100 µM | IGROV-1 > 100 µM

Cn1c(=O)c2ccccc2c2nc3ccccc3nc21
inactive: SK-MEL-28 > 100 µM | NCI-H23 > 100 µM | SF-539 92.3 µM | UACC-257 > 100 µM | EKVX > 100 µM | 786-0 97.5 µM | Malme-3M > 100 µM | OVCAR-8 > 100 µM | SNB-75 25.2 µM | A549 > 100 µM | U-251 > 100 µM | HT-29 > 100 µM | UACC-62 > 100 µM | SN12C > 100 µM | SNB-19 > 100 µM | IGROV-1 > 100 µM
